The nature of this data set: Partition coefficient (logP). Particulars: octanol/water. The class given is physicochemical.
Consider `CN(C)c1ccc(-c2cc(-c3ccccc3)[s+]c(-c3ccc(N(C)C)cc3)c2)cc1`, for which the lipophilicity (logP) was found to be 2.5.

As for `CN(C)c1ccc(-c2cc(-c3ccccc3)[se+]c(-c3ccc(N)cc3)c2)cc1`, the logP turned out to be 0.8.

Turning to `CN(C)c1ccc(-c2cc(-c3ccccc3)[te+]c(-c3ccc(N)cc3)c2)cc1`, the logP came out at 0.5.

Turning to `CN(C)c1ccc(-c2cc(-c3ccccc3)[s+]c(-c3ccc(N)cc3)c2)cc1`, the logP amounted to 0.

For the molecule `CN(C)c1ccc(-c2cc(-c3ccccc3)[se+]c(-c3ccc(N(C)C)cc3)c2)cc1`, the logP stood at 2.4.

Regarding `CN(C)c1ccc(-c2cc(-c3ccccc3)[te+]c(-c3ccc(N(C)C)cc3)c2)cc1`, the lipophilicity (logP) was found to be 2.5.

The record behind these values is ChEMBL document CHEMBL1133525, “A selenopyrylium photosensitizer for photodynamic therapy related in structure to the antitumor agent AA1 with potent in vivo activity and no long-term skin photosensitization” (J Med Chem, 2000).
